Data from publication PMC11823630, “In vitro potentiation of tetracyclines in Pseudomonas aeruginosa by RW01, a new cyclic peptide” (Antimicrobial Agents and Chemotherapy, 2024).
≈ marks a conversion by molar mass, not a printed value.

Key:
P. aeruginosa PAO1 [1] = assay: One-step mutant generation and resistant population analysis on MHA; format: cell-based, Pseudomonas aeruginosa
Experimental: (§1) Selection of resistant mutants was performed for minocycline with and without RW01 in three independent replicates for wild-type P. aeruginosa reference strain PAO1. Tubes containing Mueller-Hinton broth (MHB) were inoculated and incubated for 24 h at 37°C. Afterward, 1/100 dilution of each tube was incubated at 37°C in MHB to late-exponential growth phase, measured by spectrophotometry at OD600. […] A control plate without antibiotic was included as inoculum control. After overnight incubation, colony counting of each treatment was performed to analyze the generation of resistant population. The mutant prevention concentration (MPC) was defined as the lowest concentration of antibiotic yielding no growth of resistant mutants. Selected mutants were checked for susceptibility profiles by using a Sensititre custom plate (Thermo Fisher Scientific, Massachusetts, USA) for Gram-negative bacteria, following the manufacturer’s instructions.

PAO1 one-step mutants = assay: MIC, MHB microdilution, mutants summarised as a group; format: cell-based, Pseudomonas aeruginosa
Experimental: (§2) MIC for RW01 was also tested.
as §1

P. aeruginosa PAO1, WT [2] = assay: MIC, MHB microdilution
[3] = tested on: PAO1 mutant MIN1_RW01_1, pmrB(Y98N); assay: MIC, MHB microdilution; conditions: Pseudomonas aeruginosa, PAO1, read-out: MIC, MHB microdilution
[4] = tested on: PAO1 mutant MIN1_RW01_2, mexR(G58E), pilB(G326D), hutC(Y181X); assay: MIC, MHB microdilution; conditions: Pseudomonas aeruginosa, PAO1, read-out: MIC, MHB microdilution
[5] = tested on: PAO1 mutant MIN1_RW01_3, pmrB(V215L); assay: MIC, MHB microdilution; conditions: Pseudomonas aeruginosa, PAO1, read-out: MIC, MHB microdilution
[6] = tested on: PAO1 mutant MIN2_RW01_3, parS(V152A); assay: MIC, MHB microdilution; conditions: Pseudomonas aeruginosa, PAO1, read-out: MIC, MHB microdilution
[7] = tested on: PAO1 mutant MIN4_RW01_3, pmrB(M292T); assay: MIC, MHB microdilution; conditions: Pseudomonas aeruginosa, PAO1, read-out: MIC, MHB microdilution
[8] = tested on: PAO1 mutant MIN8_1, nalD(R3C), pilM(Q62X); assay: MIC, MHB microdilution; conditions: Pseudomonas aeruginosa, PAO1, read-out: MIC, MHB microdilution
[9] = tested on: PAO1 mutant MIN8_2, pilZ(nt18InsT); assay: MIC, MHB microdilution; conditions: Pseudomonas aeruginosa, PAO1, read-out: MIC, MHB microdilution
[10] = tested on: PAO1 mutant MIN8_3, pilZ(nt18InsT); assay: MIC, MHB microdilution; conditions: Pseudomonas aeruginosa, PAO1, read-out: MIC, MHB microdilution
[11] = tested on: PAO1 mutant MIN8_4, pilZ(nt18InsT); assay: MIC, MHB microdilution; conditions: Pseudomonas aeruginosa, PAO1, read-out: MIC, MHB microdilution
[12] = tested on: PAO1 mutant MIN16_1, nalD(T43P); assay: MIC, MHB microdilution; conditions: Pseudomonas aeruginosa, PAO1, read-out: MIC, MHB microdilution
[13] = tested on: PAO1 mutant MIN16_2, nalC(aa9∆4), pilQ(nt46∆1); assay: MIC, MHB microdilution; conditions: Pseudomonas aeruginosa, PAO1, read-out: MIC, MHB microdilution
[14] = tested on: PAO1 mutant MIN16_3, nfxB(nt79∆14), pilB(N349K); assay: MIC, MHB microdilution; conditions: Pseudomonas aeruginosa, PAO1, read-out: MIC, MHB microdilution
P. aeruginosa PAO1 [15] = assay: MIC in the presence of 25% mouse serum; conditions: for MIC: Pseudomonas aeruginosa
P. aeruginosa PAO1, WT [16] = assay: MIC, E-test on MHA; format: cell-based; conditions: Pseudomonas aeruginosa, PAO1, read-out: MIC, E-test
[17] = tested on: PAO1 mutant MIN1_RW01_1, pmrB(Y98N); assay: MIC, E-test on MHA; format: cell-based; conditions: Pseudomonas aeruginosa, PAO1, read-out: MIC, E-test
[18] = tested on: PAO1 mutant MIN1_RW01_2, mexR(G58E), pilB(G326D), hutC(Y181X); assay: MIC, E-test on MHA; format: cell-based; conditions: Pseudomonas aeruginosa, PAO1, read-out: MIC, E-test
[19] = tested on: PAO1 mutant MIN1_RW01_3, pmrB(V215L); assay: MIC, E-test on MHA; format: cell-based; conditions: Pseudomonas aeruginosa, PAO1, read-out: MIC, E-test
[20] = tested on: PAO1 mutant MIN1_RW01_4, pmrB(F124L); assay: MIC, E-test on MHA; format: cell-based; conditions: Pseudomonas aeruginosa, PAO1, read-out: MIC, E-test
[21] = tested on: PAO1 mutant MIN2_RW01_1, pmrB(V215L); assay: MIC, E-test on MHA; format: cell-based; conditions: Pseudomonas aeruginosa, PAO1, read-out: MIC, E-test
[22] = tested on: PAO1 mutant MIN2_RW01_4, pmrB(M292T); assay: MIC, E-test on MHA; format: cell-based; conditions: Pseudomonas aeruginosa, PAO1, read-out: MIC, E-test
[23] = tested on: PAO1 mutant MIN4_RW01_1, pmrB(R429H); assay: MIC, E-test on MHA; format: cell-based; conditions: Pseudomonas aeruginosa, PAO1, read-out: MIC, E-test
[24] = tested on: PAO1 mutant MIN4_RW01_2, pmrB(F124S); assay: MIC, E-test on MHA; format: cell-based; conditions: Pseudomonas aeruginosa, PAO1, read-out: MIC, E-test
[25] = tested on: PAO1 mutant MIN4_RW01_3, pmrB(M292T); assay: MIC, E-test on MHA; format: cell-based; conditions: Pseudomonas aeruginosa, PAO1, read-out: MIC, E-test
[26] = tested on: PAO1 mutant MIN8_4, pilZ(nt18InsT); assay: MIC, E-test on MHA; format: cell-based; conditions: Pseudomonas aeruginosa, PAO1, read-out: MIC, E-test
[27] = tested on: PAO1 mutant MIN16_2, nalC(aa9∆4), pilQ(nt46∆1); assay: MIC, E-test on MHA; format: cell-based; conditions: Pseudomonas aeruginosa, PAO1, read-out: MIC, E-test
[28] = tested on: PAO1 mutant MIN16_4, nalC(T50P), pilM(Q62X); assay: MIC, E-test on MHA; format: cell-based; conditions: Pseudomonas aeruginosa, PAO1, read-out: MIC, E-test
[29] = tested on: PAO1 mutant MIN32_1, mexR(R63H), pilB(N349K), PA0646(V316G); assay: MIC, E-test on MHA; format: cell-based; conditions: Pseudomonas aeruginosa, PAO1, read-out: MIC, E-test
10 P. aeruginosa strains = assay: MIC with and without RW01, summary over the strain collection; format: cell-based, Pseudomonas aeruginosa; conditions: RW01 100 mg/L; all strains tested
Experimental: as §2

CN(C)c1ccc(O)c2c1C[C@H]1C[C@H]3[C@H](N(C)C)C(O)=C(C(N)=O)C(=O)[C@@]3(O)C(O)=C1C2=O [Minocycline, minocycline]
mutant prevention concentration (MPC) (P. aeruginosa PAO1 [1]; PAO1, minocycline alone, three independent replicates): 32 to 64 mg/L
mutant prevention concentration (MPC) with RW01 (P. aeruginosa PAO1 [1]; PAO1, minocycline co-administered with RW01 100 mg/L): 8 mg/L
MIC (P. aeruginosa PAO1 [1]; Pseudomonas aeruginosa, PAO1, read-out: MIC (population studies)): 4 to 8 µg/mL (≈ 8.74 to 17.5 µM)
MIC (PAO1 one-step mutants; Pseudomonas aeruginosa, PAO1, read-out: highest MIC among the mutants): ≤ 64 µg/mL
MIC range over the tested mutants (PAO1 one-step mutants; agent alone, both mutant types, for minocycline the typical range): 16 to 32 µg/mL
MIC of the minocycline-RW01 combination (PAO1 one-step mutants; mutants selected by minocycline + RW01): 4.0 to 8.0 µg/mL
MIC of MIN + RW01, MHB microdilution (P. aeruginosa PAO1, WT [2]; PAO1 WT, minocycline MIC in combination with RW01, listed as MIN): 0.5 to 1 µg/mL
MIC (P. aeruginosa PAO1, WT [2]; Pseudomonas aeruginosa, PAO1, read-out: MIC, MHB microdilution): 4 to 8 µg/mL (≈ 8.74 to 17.5 µM)
MIC [3]: 16 µg/mL (≈ 35 µM)
MIC [4]: 32 to 64 µg/mL (≈ 69.9 to 140 µM)
MIC [5]: 16 µg/mL (≈ 35 µM)
MIC [6]: 16 µg/mL (≈ 35 µM)
MIC [7]: 64 µg/mL (≈ 140 µM)
MIC [8]: 16 µg/mL (≈ 35 µM)
MIC [9]: 16 µg/mL (≈ 35 µM)
MIC [10]: 16 µg/mL (≈ 35 µM)
MIC [11]: 16 µg/mL (≈ 35 µM)
MIC [12]: 16 µg/mL (≈ 35 µM)
MIC [13]: 16 µg/mL (≈ 35 µM)
MIC [14]: 16 to 32 µg/mL (≈ 35 to 69.9 µM)
MIC (P. aeruginosa PAO1 [15]; PAO1, read-out: MIC + RW01 in the presence of serum): 4 µg/mL
MIC (P. aeruginosa PAO1 [15]; PAO1, read-out: MIC in the presence of serum): 32 µg/mL

C[C@H]1c2cccc(O)c2C(=O)C2=C(O)[C@]3(O)C(=O)C(C(N)=O)=C(O)[C@@H](N(C)C)[C@@H]3[C@@H](O)[C@@H]21 [Doxycycline, doxycycline]
MIC (P. aeruginosa PAO1, WT [16]): 32 µg/mL (≈ 72 µM)
MIC [17]: 96 µg/mL (≈ 216 µM)
MIC [18]: 256 µg/mL (≈ 576 µM)
MIC [19]: 64 µg/mL (≈ 144 µM)
MIC [20]: 96 µg/mL (≈ 216 µM)
MIC [21]: 96 µg/mL (≈ 216 µM)
MIC [22]: 64 µg/mL (≈ 144 µM)
MIC [23]: 256 µg/mL (≈ 576 µM)
MIC [24]: 64 µg/mL (≈ 144 µM)
MIC [25]: 128 µg/mL (≈ 288 µM)
MIC [26]: 256 µg/mL (≈ 576 µM)
MIC [27]: 128 µg/mL (≈ 288 µM)
MIC [28]: 128 µg/mL (≈ 288 µM)
MIC [29]: 256 µg/mL (≈ 576 µM)
MIC in the presence of serum (P. aeruginosa PAO1 [15]; PAO1, antibiotic alone, 25% non-inactivated C57BL/6RJ mouse serum): unchanged
MIC + RW01 in the presence of serum (P. aeruginosa PAO1 [15]; PAO1, antibiotic with RW01 100 mg/L, 25% non-inactivated C57BL/6RJ mouse serum): unchanged

CN(C)c1cc(NC(=O)CNC(C)(C)C)c(O)c2c1C[C@H]1C[C@H]3[C@H](N(C)C)C(O)=C(C(N)=O)C(=O)[C@@]3(O)C(O)=C1C2=O [Tigecycline, tigecycline]
MIC (P. aeruginosa PAO1, WT [16]): 6 to 8 µg/mL (≈ 10.2 to 13.7 µM)
MIC [17]: 24 µg/mL (≈ 41 µM)
MIC [18]: 32 µg/mL (≈ 54.6 µM)
MIC [19]: 16 µg/mL (≈ 27.3 µM)
MIC [20]: 24 µg/mL (≈ 41 µM)
MIC [21]: 24 µg/mL (≈ 41 µM)
MIC [22]: 16 µg/mL (≈ 27.3 µM)
MIC [23]: 16 µg/mL (≈ 27.3 µM)
MIC [24]: 16 µg/mL (≈ 27.3 µM)
MIC [25]: 32 µg/mL (≈ 54.6 µM)
MIC [26]: 32 µg/mL (≈ 54.6 µM)
MIC [27]: 32 µg/mL (≈ 54.6 µM)
MIC [28]: 16 µg/mL (≈ 27.3 µM)
MIC [29]: 24 µg/mL (≈ 41 µM)
MIC reduction on combination with RW01 over the strains (10 P. aeruginosa strains): four- to eightfold
